# Reference: patent US20230158025A1 (UNIVERSITY OF UTAH RESEARCH FOUNDATION, priority 2020, published 2023)
# Read-outs that look alike come from different tables or passages of the source.
# How the values were obtained:
# [1] = PAMPA permeability; conditions: PAMPA
# [2] = biological target: recombinant human GALK1 (Homo sapiens, UniProt P51570); assay: hGALK1 biochemical activity assay (Kinase-Glo Plus, ATP depletion)
# Summary of the method: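 Recombinant human or mouse GALK1 (5 nM, with 100 μM galactose, in the added enzyme solution) was run with ATP (35 μM in the substrate solution) in HEPES pH 8.0 buffer. Compounds were tested at 11 1/3-step concentrations from 57.4 μM to 0.97 nM. After 1 h at room temperature, remaining ATP was read by Kinase-Glo Plus luminescence.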
# [3] = biological target: recombinant mouse GALK1 (Mus musculus, UniProt Q9R0N0); assay: mGALK1 biochemical activity assay (Kinase-Glo Plus, ATP depletion)
# Chain of recombinant mouse GALK1 (Q9R0N0 whole entry): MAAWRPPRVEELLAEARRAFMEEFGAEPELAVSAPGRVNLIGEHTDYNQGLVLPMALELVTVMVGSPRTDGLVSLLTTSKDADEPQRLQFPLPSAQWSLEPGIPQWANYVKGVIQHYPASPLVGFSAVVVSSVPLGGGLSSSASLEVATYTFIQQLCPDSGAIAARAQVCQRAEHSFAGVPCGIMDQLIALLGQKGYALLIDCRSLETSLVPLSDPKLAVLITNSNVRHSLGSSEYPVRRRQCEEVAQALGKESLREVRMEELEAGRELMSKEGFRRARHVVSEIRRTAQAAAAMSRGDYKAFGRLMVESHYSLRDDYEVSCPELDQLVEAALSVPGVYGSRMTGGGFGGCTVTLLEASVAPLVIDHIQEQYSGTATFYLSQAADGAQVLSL
# Summary of the method: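 Recombinant GALK1 (5 nM) with 100 μM galactose; GALK1 turnover read as ATP depletion by Kinase-Glo Plus luminescence. Reaction ran 1 h at room temperature before detection reagent was added.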
# [4] = rat microsomal stability (RLM); conditions: microsomal stability half-life
# [5] = aqueous kinetic solubility; conditions: aqueous kinetic solubility
# [6] = Tables 2-15, 35 μM ATP, 100 μM galactose, 1 h, bracketed figure after some values (e.g. −1.2) is undefined and not reported, read-out: hGALK IC50
# [7] = recombinant human GALK1, Kinase-Glo Plus ATP depletion, read-out: hGALK
# [8] = Tables 2-15, 35 μM ATP, 100 μM galactose, 1 h, bracketed figure after some values is undefined and not reported, read-out: mGALK IC50
# [9] = recombinant mouse GALK1, Kinase-Glo Plus ATP depletion, read-out: mGALK
# [10] = Tables 2-15, 35 μM ATP, 100 μM galactose, 1 h, bracketed figure after some values is undefined and not reported
# [11] = recombinant mouse GALK1, Kinase-Glo Plus ATP depletion
# [12] = Tables 2-15, 35 μM ATP, 100 μM galactose, 1 h, bracketed figure after some values (e.g. −1.2) is undefined and not reported
# [13] = recombinant human GALK1, Kinase-Glo Plus ATP depletion
# Chain of recombinant human GALK1 (P51570 whole entry): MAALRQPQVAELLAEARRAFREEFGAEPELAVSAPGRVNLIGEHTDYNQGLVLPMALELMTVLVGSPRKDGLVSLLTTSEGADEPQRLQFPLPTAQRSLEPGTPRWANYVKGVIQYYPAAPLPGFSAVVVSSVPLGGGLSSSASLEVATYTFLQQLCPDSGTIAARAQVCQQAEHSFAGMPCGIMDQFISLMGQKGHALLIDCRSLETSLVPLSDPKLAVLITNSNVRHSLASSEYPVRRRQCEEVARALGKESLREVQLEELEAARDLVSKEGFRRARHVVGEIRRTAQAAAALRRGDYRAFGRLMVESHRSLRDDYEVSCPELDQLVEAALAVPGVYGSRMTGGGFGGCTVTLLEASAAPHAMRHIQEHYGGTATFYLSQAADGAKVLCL
compound,measurement,setting,value
"CC1=C(C(=O)NCc2cnn(C(C)(C)C)c2)C(c2ccc(C)cc2Cl)N=C(Nc2nc3ccc(F)c(N)c3o2)N1 (stereo not drawn) [Compound 132, 2-((7-amino-6-fluorobenzo[d]oxazol-2-yl)amino)-N-((1-(tert-butyl)-1H-pyrazol-4-yl)methyl)-4-(2-chloro-4-methylphenyl)-6-methyl-1,4-dihydropyrimidine-5-carboxamide]",Perm. (1 × 10^−6 cm/sec),[1],553.2 1 × 10^−6 cm/sec
same,IC50,[2]; [6],0.77 µM
same,IC50,[2]; [7],0.77 µM
same,IC50,[3]; [8],4.32 µM
same,IC50,[3]; [9],4.32 µM
same,Metab. Stabil. (m),[4],14.41 m
same,Sol.,[5],<1 µg/mL
"CCn1ncc(CNC(=O)C2=C(C)NC(Nc3nc4ccc(F)c(N)c4o3)=NC2c2ccc(C)cc2Cl)c1F (stereo not drawn) [Compound 133, 2-((7-amino-6-fluorobenzo[d]oxazol-2-yl)amino)-4-(2-chloro-4-methylphenyl)-N-((1-ethyl-5-fluoro-1H-pyrazol-4-yl)methyl)-6-methyl-1,4-dihydropyrimidine-5-carboxamide]",Perm. (1 × 10^−6 cm/sec),[1],427.4 1 × 10^−6 cm/sec
same,IC50,[2]; [6],0.11 µM
same,IC50,[2]; [7],0.11 µM
same,IC50,[3]; [8],1.09 µM
same,IC50,[3]; [9],1.09 µM
same,Metab. Stabil. (m),[4],7.036 m
same,Sol.,[5],<1 µg/mL
"CCn1cc(CNC(=O)C2=C(C)NC(Nc3nc4ccc(F)c(N)c4o3)=N[C@@H]2c2ccc(C)cc2Cl)cn1 [Compound 134, (S)-2-((7-amino-6-fluorobenzo[d]oxazol-2-yl)amino)-4-(2-chloro-4-methylphenyl)-N-((1-ethyl-1H-pyrazol-4-yl)methyl)-6-methyl-1,4-dihydropyrimidine-5-carboxamide]",Perm. (1 × 10^−6 cm/sec),[1],772.8 1 × 10^−6 cm/sec
same,IC50,[2]; [7],1.53 µM
same,IC50,[3]; [9],10.9 µM
same,Metab. Stabil. (m),[4],8.619 m
same,Sol.,[5],<1 µg/mL
"CCn1cc(CNC(=O)C2=C(C)NC(Nc3nc4ccc(F)c(N)c4o3)=NC2c2ccccc2Cl)cn1 (stereo not drawn) [Compound 136, 2-((7-amino-6-fluorobenzo[d]oxazol-2-yl)amino)-4-(2-chlorophenyl)-N-((1-ethyl-1H-pyrazol-4-yl)methyl)-6-methyl-1,4-dihydropyrimidine-5-carboxamide]",Perm. (1 × 10^−6 cm/sec),[1],133.5 1 × 10^−6 cm/sec
same,IC50,[2]; [7],0.19 µM
same,IC50,[3]; [9],2.17 µM
same,Metab. Stabil. (m),[4],17.72 m
same,Sol.,[5],23.87 µg/mL
"CC1=C(C(=O)Nc2ccccc2Cl)C(c2ccccc2Cl)N=C(Nc2nc3ccccc3o2)N1 (stereo not drawn) [Compound 140, 2-(benzo[d]oxazol-2-ylamino)-N,4-bis(2-chlorophenyl)-6-methyl-1,4-dihydropyrimidine-5-carboxamide]",Perm. (1 × 10^−6 cm/sec),[1],56.0 1 × 10^−6 cm/sec
same,IC50,[2]; [6],4.32 µM
same,mGALK IC50,[3]; [10],inactive
same,mGALK (μM),[3]; [11],in- active
same,Metab. Stabil. (m),[4],28.74 m
same,Sol.,[5],<1 µg/mL
"CC1=C(C(=O)Nc2ccc(Cl)cc2)C(c2ccccc2Cl)N=C(Nc2nc3ccccc3o2)N1 (stereo not drawn) [Compound 141, 2-(benzo[d]oxazol-2-ylamino)-4-(2-chlorophenyl)-N-(4-chlorophenyl)-6-methyl-1,4-dihydropyrimidine-5-carboxamide]",Perm. (1 × 10^−6 cm/sec),[1],2.0 1 × 10^−6 cm/sec
same,hGALK IC50,[2]; [12],inactive
same,hGALK (μM),[2]; [13],in- active
same,IC50,[3]; [8],7.69 µM
same,IC50,[3]; [9],7.69 µM
same,Metab. Stabil. (m),[4],>30 m
same,Sol.,[5],<1 µg/mL
"CC1=C(C(=O)Nc2cccc(CO)c2)C(c2ccccc2Cl)N=C(Nc2nc3ccccc3o2)N1 (stereo not drawn) [Compound 144, 2-(benzo[d]oxazol-2-ylamino)-4-(2-chlorophenyl)-N-(3-(hydroxymethyl)phenyl)-6-methyl-1,4-dihydropyrimidine-5-carboxamide]",Perm. (1 × 10^−6 cm/sec),[1],1124.1 1 × 10^−6 cm/sec
same,IC50,[2]; [7],3.85 µM
same,IC50,[3]; [8],9.68 µM
same,IC50,[3]; [9],9.68 µM
same,Metab. Stabil. (m),[4],>30 m
same,Sol.,[5],<1 µg/mL
"CC1=C(C(=O)N2CCOCC2)C(c2ccccc2Cl)N=C(Nc2nc3ccccc3o2)N1 (stereo not drawn) [Compound 145, (2-(benzo[d]oxazol-2-ylamino)-4-(2-chlorophenyl)-6-methyl-1,4-dihydropyrimidin-5-yl)(morpholino)methanone]",Perm. (1 × 10^−6 cm/sec),[1],1046.7 1 × 10^−6 cm/sec
same,IC50,[2]; [7],24.3 µM
same,IC50,[3]; [9],24.3 µM
same,Metab. Stabil. (m),[4],2.1 m
same,Sol.,[5],15.3 µg/mL
"CC1=C(C(=O)Nc2cccc(Br)c2)C(c2ccccc2Cl)N=C(Nc2nc3ccccc3o2)N1 (stereo not drawn) [Compound 147, 2-(benzo[d]oxazol-2-ylamino)-N-(3-bromophenyl)-4-(2-chlorophenyl)-6-methyl-1,4-dihydropyrimidine-5-carboxamide]",Perm. (1 × 10^−6 cm/sec),[1],<1.8 1 × 10^−6 cm/sec
same,hGALK IC50,[2]; [12],inactive
same,hGALK (μM),[2]; [13],in- active
same,mGALK IC50,[3]; [10],inactive
same,mGALK (μM),[3]; [11],in- active
same,Metab. Stabil. (m),[4],>30 m
same,Sol.,[5],<1 µg/mL
"CC1=C(C(=O)Nc2ccc(F)cc2)C(c2ccccc2Cl)N=C(Nc2nc3ccccc3o2)N1 (stereo not drawn) [Compound 148, 2-(benzo[d]oxazol-2-ylamino)-N-(4-fluorophenyl)-4-(2-chlorophenyl)-6-methyl-1,4-dihydropyrimidine-5-carboxamide]",Perm. (1 × 10^−6 cm/sec),[1],29.4 1 × 10^−6 cm/sec
same,IC50,[2]; [6],7.69 µM
same,IC50,[3]; [8],12.2 µM
same,IC50,[3]; [9],12.2 µM
same,Metab. Stabil. (m),[4],>30 m
same,Sol.,[5],<1 µg/mL
"CC1=C(C(=O)Nc2cccnc2)C(c2ccccc2Cl)N=C(Nc2nc3ccccc3o2)N1 (stereo not drawn) [Compound 149, 2-(benzo[d]oxazol-2-ylamino)-N-(pyridin-3-yl)-4-(2-chlorophenyl)-6-methyl-1,4-dihydropyrimidine-5-carboxamide]",Perm. (1 × 10^−6 cm/sec),[1],513.0 1 × 10^−6 cm/sec
same,IC50,[2]; [7],6.85 µM
same,IC50,[3]; [8],12.2 µM
same,IC50,[3]; [9],12.2 µM
same,Metab. Stabil. (m),[4],20 m
same,Sol.,[5],<1 µg/mL
"CC1=C(C(=O)Nc2ccc(Br)cc2)C(c2ccccc2Cl)N=C(Nc2nc3ccccc3o2)N1 (stereo not drawn) [Compound 150, 2-(benzo[d]oxazol-2-ylamino)-N-(4-bromophenyl)-4-(2-chlorophenyl)-6-methyl-1,4-dihydropyrimidine-5-carboxamide]",Perm. (1 × 10^−6 cm/sec),[1],<14.9 1 × 10^−6 cm/sec
same,IC50,[2]; [6],9.68 µM
same,IC50,[2]; [7],9.68 µM
same,IC50,[3]; [8],15.3 µM
same,IC50,[3]; [9],15.3 µM
same,Metab. Stabil. (m),[4],>30 m
same,Sol.,[5],<1 µg/mL
"CC1=C(C(=O)N(C)c2ccccc2)C(c2ccccc2Cl)N=C(Nc2nc3ccccc3o2)N1 (stereo not drawn) [Compound 151, 2-(benzo[d]oxazol-2-ylamino)-4-(2-chlorophenyl)-N,6-dimethyl-N-phenyl-1,4-dihydropyrimidine-5-carboxamide]",Perm. (1 × 10^−6 cm/sec),[1],203.1 1 × 10^−6 cm/sec
same,hGALK (μM),[2]; [13],in- active
same,mGALK (μM),[3]; [11],in- active
same,Metab. Stabil. (m),[4],1.176 m
same,Sol.,[5],<1 µg/mL
"CC1=C(C(=O)Nc2ccc(N(C)C)cc2)C(c2ccccc2Cl)N=C(Nc2nc3ccccc3o2)N1 (stereo not drawn) [Compound 152, 2-(benzo[d]oxazol-2-ylamino)-4-(2-chlorophenyl)-N-(4-(dimethylamino)phenyl)-6-methyl-1,4-dihydropyrimidine-5-carboxamide]",Perm. (1 × 10^−6 cm/sec),[1],15.0 1 × 10^−6 cm/sec
same,IC50,[2]; [6],7.69 µM
same,IC50,[2]; [7],7.69 µM
same,IC50,[3]; [8],13.7 µM
same,IC50,[3]; [9],13.7 µM
same,Metab. Stabil. (m),[4],11.45 m
same,Sol.,[5],<1 µg/mL
"CC1=C(C(=O)Nc2cccc(Cl)c2)C(c2ccccc2Cl)N=C(Nc2nc3ccccc3o2)N1 (stereo not drawn) [Compound 154, 2-(benzo[d]oxazol-2-ylamino)-N-(3-chlorophenyl)-4-(2-chlorophenyl)-6-methyl-1,4-dihydropyrimidine-5-carboxamide]",Perm. (1 × 10^−6 cm/sec),[1],<9.2 1 × 10^−6 cm/sec
same,hGALK IC50,[2]; [12],inactive
same,hGALK (μM),[2]; [13],in- active
same,mGALK IC50,[3]; [10],inactive
same,mGALK (μM),[3]; [11],in- active
same,Metab. Stabil. (m),[4],>30 m
same,Sol.,[5],<1 µg/mL
